{"source": "patent US20080146555A1", "about": "“Uses of Kinase Inhibitors and Compositions Thereof” (GPC Biotech, Inc, priority 2004, published 2008)", "key": {"[1]": {"test_system": "HCT-116 cells", "assay": "Clonogenic survival assay with HCT-116 cells", "type": "cell-based", "conditions": "Homo sapiens, 24 hour compound exposure, read-out: Clonogenic survival IC50, HCT-116", "procedure": "This assay was used to determine the concentration of a compound that results in irreversible loss of viability after a specified period of exposure. Essentially, cells are exposed to compound for a period of […], and are then transferred to compound-free growth medium. After continued incubation in the compound-free medium for a number of days, the number of colonies recovered is counted as an estimate of the number of surviving cells.\nMedia (RPMI-1640, 10% FCS, pen/strep) was pre-warmed to 37° C. in a water bath. Cells were incubated and grown at 37° C., 5% CO2. Cells were recovered by trypsinization from sub-confluent plates and counted using a hemocytometer. 1×10^4 cells were plated in 25 mls of media in a 15 cm tissue culture dish. […] were set up for each test compound, and were incubated overnight at 37° C. The compound was diluted into media at 7 concentrations and the media on the cells was replaced with that containing the test compound. Two plates were set up for each concentration of the compound to be tested, as well as two control plates without compound. Plates were incubated as above for […], media was removed and replaced with fresh media, and the plates were incubated an additional 7 days and washed with PBS. Colonies were stained with crystal violet solution (0.4% crystal violet, 20% ethanol) for 5 minutes, washed twice with distilled water, and counted."}, "[2]": {"test_system": "HCT-116 cells", "assay": "Calcein AM viability assay, HCT-116", "type": "cell-based", "conditions": "Homo sapiens", "procedure,_shortened": "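Cells (HCT-116 1,000, IMR90 4,000 per well) adhered overnight, then received 7 doses from 0 to 250 nM for 72 h at 37 °C. Viability read as calcein fluorescence after 75 min with Calcein AM; IC50 values, with protein-adjusted values also obtained in HCT-116.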"}, "[3]": {"molecular_target": "T1, Lck (Homo sapiens, UniProt P06239)", "T1 construct": "purchased Upstate 14-442", "T1 sequence (P06239 whole entry)": "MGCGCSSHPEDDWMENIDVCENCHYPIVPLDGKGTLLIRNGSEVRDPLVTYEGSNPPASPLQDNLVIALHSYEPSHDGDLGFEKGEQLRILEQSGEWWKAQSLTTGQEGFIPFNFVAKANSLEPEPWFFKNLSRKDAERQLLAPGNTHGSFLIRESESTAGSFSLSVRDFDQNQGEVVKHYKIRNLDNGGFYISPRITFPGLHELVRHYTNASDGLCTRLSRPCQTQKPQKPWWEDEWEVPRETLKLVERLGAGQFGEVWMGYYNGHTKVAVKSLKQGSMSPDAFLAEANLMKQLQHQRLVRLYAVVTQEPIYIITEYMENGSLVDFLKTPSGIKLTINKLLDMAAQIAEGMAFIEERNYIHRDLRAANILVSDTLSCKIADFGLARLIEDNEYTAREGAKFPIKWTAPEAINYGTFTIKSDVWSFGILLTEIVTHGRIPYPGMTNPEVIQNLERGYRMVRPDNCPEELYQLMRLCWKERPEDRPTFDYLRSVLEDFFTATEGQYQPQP", "assay": "Lck kinase assay", "type": "biochemical", "procedure": "• 1. Assay Buffer: 200 mM Tris-HCl pH 7.5, 0.4 mM EGTA, 0.4 mM sodium orthovanadate. • 2. Enzyme Dilution Buffer (EDB): 20 mM MOPS, pH 7.5, 1 mM EDTA, 0.01% Brij-35, 5% glycerol, 0.1% β-mercaptoethanol, 1 mg/ml BSA. • 3. Lck, active: Dilute to 10-100 ng/μl with EDB. Use 2.5 μl per assay point. • 4. Src Substrate Peptide (Catalog #12-140): Prepare a 2.5 mM stock with sterile, distilled water. Use 2.5 μl per assay point for a final concentration of 250 μM per assay. • 5. Magnesium/ATP Cocktail (Catalog #20-113): 500 μM cold ATP and 75 mM magnesium chloride in 20 mM MOPS, pH 7.2, 25 mM β-glycerophosphate, 5 mM EGTA, 1 mM Na3VO4, 1 mM dithiothreitol. • 6. [γ-^32P]ATP: Stock 1 mCi/100 μl (3000 Ci/mmol, obtained from PerkinElmer, Catalog #BLU002A). Make 10 μl aliquots (100 μCi/vial). Before starting the assay, dilute the Magnesium/ATP Cocktail 1:1 with sterile, distilled water. Then dilute an aliquot of [γ-^32P]ATP to 1 μCi/μl with 90 μl of the diluted Magnesium/ATP Cocktail. […]\n• 1. Add 6.25 μl of Assay Buffer per assay. • 2. Add 2.5 μl (25-250 ng) of Lck, active. • 3. Add 2.5 μl Src Substrate peptide (250 μM). • 4. Add 3.75 μl distilled water. • 5. Add 10 μl of the diluted [γ-^32P]ATP solution. • 6. Incubate for 10 minutes at 30° C. • 7. Transfer a 20 μl aliquot onto the center of a 2 cm×2 cm P81 paper. • 8. Wash assay squares five times with 0.75% phosphoric acid for 5 minutes per wash. • 9. Wash assay squares once with acetone for 5 minutes. • 10. Transfer assay squares to a scintillation vial and add 5 ml scintillation cocktail. • 11. Read in scintillation counter. Compare cpm of enzyme samples to cpm of control samples that contain no substrate (background control)."}, "[4]": {"conditions": "HCT-116, non-protein adjusted, Table 4, read-out: HCT-116 viability IC50"}, "[5]": {"conditions": "HCT-116, text b600, read-out: HCT-116 protein-adjusted viability IC50"}, "[6]": {"conditions": "HCT-116, text b600, read-out: HCT-116 viability IC50"}, "[7]": {"conditions": "read-out: LCK Inhibition (IC50)"}}, "note": "Structures can show the parent of a compound that is named as a salt. Where two headings read alike, the source gives them in different places."}
{"smiles": "CC(C)N1CCN(C(=O)COc2ccc(-c3n[nH]c4c3C(=O)c3c(NC(=O)NN5CCOCC5)cccc3-4)cc2)CC1", "note": "[Compound A37]", "values": [{"measurement": "IC50", "setting": "[1]", "value": "< 50", "unit": "nM"}, {"measurement": "IC50", "setting": "[2]; [4]", "value": "< 100", "unit": "nM"}, {"measurement": "IC50", "setting": "[2]; [5]", "value": "< 500", "unit": "nM"}, {"measurement": "IC50", "setting": "[2]; [6]", "value": "< 50", "unit": "nM"}, {"measurement": "IC50", "setting": "[3]; [7]", "value": "< 50", "unit": "nM"}]}
{"smiles": "COCCN1CCN(Cc2ccc(-c3n[nH]c4c3C(=O)c3c(NC(=O)NN5CCOCC5)cccc3-4)cc2)CC1", "note": "[Compound B16, N-[3-(4-{[4-(2-methoxyethyl)piperazinyl]methyl}phenyl)-4-oxoindeno[2,3-d]pyrazol-5-yl](morpholin-4-ylamino)carboxamide dihydrochloride]", "values": [{"measurement": "IC50", "setting": "[1]", "value": "< 100", "unit": "nM"}, {"measurement": "IC50", "setting": "[2]; [4]", "value": "< 10", "unit": "nM"}, {"measurement": "IC50", "setting": "[2]; [5]", "value": "< 500", "unit": "nM"}, {"measurement": "IC50", "setting": "[2]; [6]", "value": "< 10", "unit": "nM"}, {"measurement": "IC50", "setting": "[3]; kinase panel, 10 μM ATP, read-out: Lck (Lymphocyte kinase) IC50", "value": "< 100", "unit": "nM"}, {"measurement": "IC50", "setting": "[3]; [7]", "value": "< 50", "unit": "nM"}]}
